Patent publication US20260232834A1, “CYTOTOXICITY TARGETING CHIMERAS FOR ANTIBODY-DRUG CONJUGATES AND BISPECIFIC ANTIBODIES” (GLAXOSMITHKLINE INTELLECTUAL PROPERTY DEVELOPMENT LIMITED, priority 2023, published 2026)

Tested on: PSMA-expressing cells (LNCAP)
Assay: Antibody-drug conjugate (ADC) cell killing assay, PSMA-expressing cells (CellTiter Glo)
Type: cell-based
Settings: 100 nM ADC plus serial diluted PSMA targeted CyTaC (max 20 μM), 48 hours, FIG. 3
Excerpt: An antibody-drug conjugate (ADC) cell killing assay was developed to screen cotinine targeted ADCs in a 384-well plate format. This assay utilized (i) an anti-cotinine antibody having a heavy chain sequence of SEQ ID NO: 9 and a light chain sequence of SEQ ID NO: conjugated with Deruxtecan and (ii) a Prostate Specific Membrane Antigen (PSMA) Cytotoxicity Targeting Chimera (CyTaC) to target PSMA expressing cells for death. The structures of the ADC and PSMA targeted CyTaC used in this experiment are shown below:
To screen ADCs, 10,000 PSMA-expressing cells (LNCAP) or 10,000 non-expressing cells (CHO) in media (RPMI 1640 (Gibco) containing 10% fetal bovine serum (Gibco)) were transferred to a 384-well plate (Greiner Bio-One). To each well containing cells, 100 nM ADC was added. Next, serial diluted PSMA targeted CyTaC (maximum concentration of 20 μM) was added to appropriate wells. The plates were then incubated for 48 hours at 37° C. with 5% CO2. Following the 48 hour incubation, an equal volume of CellTiter Glo (Promega) was added to each well and the plates were read on a PheraStar Plate Reader (BMG) to measure cell viability via Luminescence signal. Signal: background was calculated by dividing the signal of a test well by the signal obtained when no CyTaC was added. The % cell death was calculated by: (1-(test well signal/no CyTaC signal))*100. […]

CN1C(=O)C[C@H](C(=O)NCCO[C@H]2CC[C@H](OCCCC(=O)N[C@H]3CC[C@H](C(=O)N[C@@H](Cc4ccc5ccccc5c4)C(=O)NCCCC[C@H](NC(=O)N[C@@H](CCC(=O)O)C(=O)O)C(=O)O)CC3)CC2)[C@H]1c1cccnc1 [PSMA targeted CyTaC]
ADC mediated cell killing (% cell death): ADC mediated cell killing of PSMA expressing cells
